According to ChEMBL document CHEMBL4411338, “Convenient framework of poly functionalized (E)-2-benzylideno-(Z)-carbazolylideno cyanoacetamides via rearrangements as an efficient antibiofilm inhibitors with SAR study” (Bioorg Med Chem, 2019):
Activity calls are given as the source filed them. No cut-off for these calls is given here.

Experiments:
Priestia megaterium = assay: Antibiofilm activity against ofloxacin-resistant Bacillus megaterium assessed as disruption of biofilm at 200 ug/ml after 24 hrs by crystal violet staining based ELISA relative to control; assay type: functional
Bacillus subtilis = assay: Antibiofilm activity against tetracycline-resistant Bacillus subtilis assessed as disruption of biofilm at 200 ug/ml after 24 hrs by crystal violet staining based ELISA relative to control; assay type: functional
Escherichia coli [1] = assay: Antibiofilm activity against carbapenem-resistant Escherichia coli assessed as disruption of biofilm at 200 ug/ml after 24 hrs by crystal violet staining based ELISA relative to control; assay type: functional
Pseudomonas fluorescens = assay: Antibiofilm activity against tetracycline-resistant Pseudomonas fluorescens assessed as disruption of biofilm at 200 ug/ml after 24 hrs by crystal violet staining based ELISA relative to control; assay type: functional
Pseudomonas aeruginosa [2] = assay: Antibiofilm activity against carbenicillin-resistant Pseudomonas aeruginosa assessed as disruption of biofilm at 200 ug/ml after 24 hrs by crystal violet staining based ELISA relative to control; assay type: functional
Klebsiella pneumoniae [3] = assay: Antibiofilm activity against carbapenem-resistant Klebsiella pneumoniae assessed as disruption of biofilm at 200 ug/ml after 24 hrs by crystal violet staining based ELISA relative to control; assay type: functional
Klebsiella pneumoniae [4] = assay: Antibiofilm activity against tetracycline-resistant Klebsiella pneumoniae assessed as disruption of biofilm at 200 ug/ml after 24 hrs by crystal violet staining based ELISA relative to control; assay type: functional
Escherichia coli [5] = assay: Antibiofilm activity against carbenicillin-resistant Escherichia coli assessed as disruption of biofilm at 100 ug/ml after 24 hrs by crystal violet staining based ELISA relative to control; assay type: functional
Klebsiella pneumoniae [6] = assay: Antibiofilm activity against tetracycline-resistant Klebsiella pneumoniae assessed as disruption of biofilm at 100 ug/ml after 24 hrs by crystal violet staining based ELISA relative to control; assay type: functional
Klebsiella pneumoniae [7] = assay: Antibiofilm activity against carbenicillin-resistant Klebsiella pneumoniae assessed as disruption of biofilm at 200 ug/ml after 24 hrs by crystal violet staining based ELISA relative to control; assay type: functional
Pseudomonas aeruginosa [8] = assay: Antibiofilm activity against carbenicillin-resistant Pseudomonas aeruginosa assessed as disruption of biofilm at 100 ug/ml after 24 hrs by crystal violet staining based ELISA relative to control; assay type: functional
Escherichia coli [9] = assay: Antibiofilm activity against carbenicillin-resistant Escherichia coli assessed as disruption of biofilm at 10 ug/ml by crystal violet/acridine orange staining based fluorescence microscopic analysis; assay type: functional, organism-based
Pseudomonas aeruginosa [10] = assay: Antibiofilm activity against carbenicillin-resistant Pseudomonas aeruginosa assessed as disruption of biofilm at 10 ug/ml by crystal violet/acridine orange staining based fluorescence microscopic analysis; assay type: functional, organism-based
Klebsiella pneumoniae [11] = assay: Antibiofilm activity against carbenicillin-resistant Klebsiella pneumoniae assessed as disruption of biofilm at 10 ug/ml by crystal violet/acridine orange staining based fluorescence microscopic analysis; assay type: functional, organism-based
Klebsiella pneumoniae [12] = assay: Antibiofilm activity against tetracycline-resistant Klebsiella pneumoniae assessed as disruption of biofilm at 10 ug/ml by crystal violet/acridine orange staining based fluorescence microscopic analysis; assay type: functional, organism-based
Escherichia coli [13] = assay: Reduction in reactive oxygen species level in carbapenem-resistant Escherichia coli biofilm at 10 ug/ml measured after 2 to 6 hrs by DCFH-DA probe based UV-spectrofluorimetric method; assay type: functional, organism-based
Escherichia coli [14] = assay: Antibiofilm activity against carbapenem-resistant Escherichia coli biofilm assessed as reactive oxygen species generation at 10 ug/ml after 1 hr by DCFH-DA probe based UV-spectrofluorimetric method relative to control; assay type: functional
HEK293 [15] = assay: Cytotoxicity against HEK293 cells assessed as reduction in cell viability at >75 ug/ml after 24 hrs by MTT assay; assay type: cell-based; conditions: human, hek293, 24 h
HEK293 [16] = assay: Cytotoxicity against HEK293 cells assessed as reduction in cell viability up to 75 ug/ml after 24 hrs by MTT assay; assay type: cell-based; conditions: human, hek293, 24 h

SMILES	inhibition at 200 µg/mL (Priestia megaterium)	inhibition at 200 µg/mL (Bacillus subtilis)	inhibition at 200 µg/mL (Escherichia coli [1])	inhibition at 200 µg/mL (Pseudomonas fluorescens)	inhibition at 200 µg/mL (Pseudomonas aeruginosa [2])	inhibition at 200 µg/mL (Klebsiella pneumoniae [3])	inhibition at 200 µg/mL (Klebsiella pneumoniae [4])	inhibition at 100 µg/mL (Escherichia coli [5])	inhibition at 100 µg/mL (Klebsiella pneumoniae [6])	inhibition at 200 µg/mL (Klebsiella pneumoniae [7])	inhibition at 100 µg/mL (Pseudomonas aeruginosa [8])	Activity (Escherichia coli [9])	Activity (Pseudomonas aeruginosa [10])	Activity (Klebsiella pneumoniae [11])	Activity (Klebsiella pneumoniae [12])	Activity (Escherichia coli [13])	fold change (FC) (Escherichia coli [14])	Activity (HEK293 [15])	Activity (HEK293 [16])
COc1ccc(/C=C2\CCc3c([nH]c4c(C)cccc34)\C2=C(\C#N)C(N)=O)cc1OC	6.1%	31%	84.6%	0%	12.5%	16%	23%												
Cc1ccc2[nH]c3c(c2c1)CCC(=C\c1cccc(F)c1)/C3=C(\C#N)C(N)=O	21.1%	10%	24.8%	15%	25.3%	29%	0%												
Cc1ccc2[nH]c3c(c2c1)CCC(=C\c1ccccn1)/C3=C(\C#N)C(N)=O	18.2%	26%	21.7%	29%	17%	32%	0%												
O=C(O)c1cn(C2CC2)c2cc(N3CCNCC3)c(F)cc2c1=O [CIPROFLOXACIN]	56.3%	23%	45%	38%	49.7%	25.5%	43%												
Cc1cccc2c3c([nH]c12)C(=C(/C#N)C(N)=O)/C(=C/c1cccs1)CC3	17.6%	12%	22.8%	0%	24.1%	12%	27.9%												
Cc1ccc2c3c([nH]c2c1)C(=C(/C#N)C(N)=O)/C(=C/c1cccs1)CC3	15.7%	21%	9.8%	28%	18.9%	18%	3.5%												
Cc1ccc2[nH]c3c(c2c1)CCC(=C\c1cccc(Br)c1)/C3=C(\C#N)C(N)=O	6.3%	10%	33.5%	12%	13.2%	20.7%	28.3%												
Cc1ccc2[nH]c3c(c2c1)CCC(=C\c1cccs1)/C3=C(\C#N)C(N)=O	4.5%	28%	70%	73%	29.3%	74%	81%	78%	78%										
COc1ccc(/C=C2\CCc3c([nH]c4cc(C)ccc34)\C2=C(\C#N)C(N)=O)cc1OC	10.9%	32%	17.2%	5%	15.3%	12%	18.3%												
Cc1cccc2c3c([nH]c12)C(=C(/C#N)C(N)=O)/C(=C/c1ccccc1)CC3	31.4%	23%	14.6%	0%	4.3%	21%	1.9%												
Cc1ccc2[nH]c3c(c2c1)CCC(=C\c1ccc(F)cc1)/C3=C(\C#N)C(N)=O	32.4%	56%	13.4%	11%	19.3%	17%	0%												
COc1ccc(/C=C2\CCc3c([nH]c4ccc(C)cc34)\C2=C(\C#N)C(N)=O)cc1OC	17.1%	21%	80%	31%	67%	78%	78%	78%		82%									
Cc1ccc2c3c([nH]c2c1)C(=C(/C#N)C(N)=O)/C(=C/c1ccccc1)CC3	13.1%	45%	16%	26.4%	17%	14%	15.6%												
Cc1ccc2[nH]c3c(c2c1)CCC(=C\c1ccccc1)/C3=C(\C#N)C(N)=O	21.4%	23%	85%	31%	81%	71%	71%	89%			79%	Active	Active	Active	Active	Active	2	Toxic	Non-Toxic
CCOc1ccc(/C=C2\CCc3c([nH]c4ccc(C)cc34)\C2=C(\C#N)C(N)=O)cc1OCC	11.2%	8%	27.4%	18%	29.3%	16%	23.3%												
